From US9493478B2, “Fused ring compound containing furan or salt thereof and pharmaceutical composition comprising same” (YUHAN CORPORATION, priority 2012, dated 2016)

Assays:
Type in all cases: biochemical
PI3Kγ (p120γ)(h) = PI3Kγ (p120γ)(h) (Homo sapiens, UniProt P48736); experiment: Assay for phosphatidylinositol 3-kinase gamma (PI3Kγ) activity, PI3K-HTRF kit; conditions: TR-FRET; enzyme 1.45 μg/ml, 10 μM PIP2, 10 μM ATP
Method: (§1) The compounds of the present invention were assayed for the activity of phosphatidylinositol 3-kinase gamma (PI3Kγ) by using a PI3K enzyme-homogenous time resolved fluorescence (PI3K-HTRF) kit, which is available from Upstate (Millipore Co, Billerica, Mass., USA).
(§2) Three kinds of buffer solutions including a phosphorylation reaction solution (a reaction buffer containing 40 mM MgCl2 which is available from Upstate was diluted 4 times and added with 5 mM DTT), a stop solution (STOP A and B solutions which are available from Upstate were mixed at a ratio of 3:1) and a fluorescence detection solution (Detection solutions A, B and C which are available from Upstate were mixed at a ratio of 1:1:18) were prepared. 1 mM of PIP2 substrate (phosphatidylinositol 4,5 biphosphate; Upstate), PI3Kγ (#14-558; Upstate) enzyme and 10 mM ATP (Sigma Aldrich Co., St. Louis, Mo., USA) were prepared. Each of PI3Kγ, 1 mM PIP2 and 10 mM ATP was diluted to 2.9 μg/ml (final reaction concentration: 1.45 μg/ml), 20 μM (final reaction concentration: 10 μM) and 40 μM (final reaction concentration: 10 μM), respectively. The buffer solution used for dilution and preparation process was the phosphorylation reaction solution. The stop solution was used for the termination of phosphorylation reaction, and the fluorescence detection solution was used for the detection of time-resolved fluorescence signals.
(§3) Each test sample was transferred to a 384 well low flange white flat bottom microplate (#3572, Corning Life Sciences, Lowell, Mass., USA) by using a multi 8-channel (Pipetman Neo multi 8×20, Gilson, Middleton, Wis., USA) to make a final phosphorylation reaction volume of 20 μl per each well. For the negative control, 5 μl of 14.4% DMSO and 10 μl of PIP2 substration solution were used, and 5 μl of 14.4% DMSO and 10 μl of PIP2/PI3Kγ mixed solution were used as the positive control. For the test group, 5 μl of a solution prepared by dissolving the compound obtained in Example in DMSO and 10 μl of PIP2/PI3Kγ mixed solution were used. Before the initiation of the phosphorylation reaction, sample compounds were pretreated with the enzyme for approximately 10 minutes, and then the phosphorylation reaction was induced by adding 5 μl of ATP. Since each of the test compound and ATP takes up 25% of the total volume, and PIP2 and PI3Kγ take up 50% of the total volume during the reaction, each solution was concentrated 4 and 2 times, respectively, before mixing the solutions. Subsequently, the test sample was gently shook for 3 minutes and subjected to a phosphorylation reaction for 90 minutes at room temperature, which was then added with 5 μl of the stop solution to terminate the phosphorylation reaction. In order to induce a time-resolved fluorescence reaction, 5 μl of the fluorescence detection solution was added to the sample. The fluorescence detection solution contains biotin-phosphatidylinositol 3,4,5-triphosphate (PIP3), streptavidin-labeled Allopycocyanin (APC) and europium-labeled Pleckstrin homology domain (the PIP3 binds to PH domain), and the time-resolved fluorescence reaction is induced by a series of reaction of PH domain and PIP3, and biotin and streptavidin. The sample was left to stand for 6 hours at room temperature, and the time-resolved fluorescence resonance energy transfer (TR-FRET) rate was measured (emission wavelength: 665 nm, 620 nm, excitation wavelength: 340 nm) by using a Flexstation3 Micro plate reader (Molecular Devices, USA). TR-FRET Rate and TR-Inhibition Rate were calculated based on Equations 1 and 2 below, and the results are expressed in IC50, which is the concentration of a compound that inhibits 50% of PI3Kγ activity in vitro. TR-FRET Rate=(665 nm emission wavelength/620 nm emission wavelength)×10000 <Equation 1> TR-FRET Inhibition Rate=[(TR-FRET Rate of Sample−TR-FRET Rate of Negative Control)/(TR-FRET Rate of Positive Control−TR-FRET Rate of Negative Control)]×100 <Equation 2>

PI3Kα (p110α/p85α)(h) = PI3Kα (p110α/p85α)(h) (Homo sapiens, UniProt P42336); experiment: Assay for phosphatidylinositol 3-kinase alpha (PI3Kα) activity, PI3K-HTRF kit; conditions: TR-FRET; enzyme 0.3625 μg/ml, 10 μM PIP2, 10 μM ATP
Method: [The source words this procedure for another target and says it was used here with some conditions changed.] as §1, §2, §3

PI3K β (p110β/p85α)(h) = PI3K β (p110β/p85α)(h) (Homo sapiens, UniProt P42338); experiment: Assay for phosphatidylinositol 3-kinase beta (PI3Kβ) activity, PI3K-HTRF kit; conditions: TR-FRET; enzyme 0.725 μg/ml, 10 μM PIP2, 10 μM ATP
Method: [The source words this procedure for another target and says it was used here with some conditions changed.] as §1, §2
as §3, with “2> […]” for “2>”

PI3Kδ (p110δ/p85α)(h) = PI3Kδ (p110δ/p85α)(h) (Homo sapiens, UniProt O00329); experiment: Assay for phosphatidylinositol 3-kinase delta (PI3Kδ) activity, PI3K-HTRF kit; conditions: TR-FRET; enzyme 0.725 μg/ml, 10 μM PIP2, 10 μM ATP
Method: [The source words this procedure for another target and says it was used here with some conditions changed.] as §1, §2
as §3, with “2> […]” for “2>”

Chain of PI3K β (p110β/p85α)(h) (P42338 whole entry): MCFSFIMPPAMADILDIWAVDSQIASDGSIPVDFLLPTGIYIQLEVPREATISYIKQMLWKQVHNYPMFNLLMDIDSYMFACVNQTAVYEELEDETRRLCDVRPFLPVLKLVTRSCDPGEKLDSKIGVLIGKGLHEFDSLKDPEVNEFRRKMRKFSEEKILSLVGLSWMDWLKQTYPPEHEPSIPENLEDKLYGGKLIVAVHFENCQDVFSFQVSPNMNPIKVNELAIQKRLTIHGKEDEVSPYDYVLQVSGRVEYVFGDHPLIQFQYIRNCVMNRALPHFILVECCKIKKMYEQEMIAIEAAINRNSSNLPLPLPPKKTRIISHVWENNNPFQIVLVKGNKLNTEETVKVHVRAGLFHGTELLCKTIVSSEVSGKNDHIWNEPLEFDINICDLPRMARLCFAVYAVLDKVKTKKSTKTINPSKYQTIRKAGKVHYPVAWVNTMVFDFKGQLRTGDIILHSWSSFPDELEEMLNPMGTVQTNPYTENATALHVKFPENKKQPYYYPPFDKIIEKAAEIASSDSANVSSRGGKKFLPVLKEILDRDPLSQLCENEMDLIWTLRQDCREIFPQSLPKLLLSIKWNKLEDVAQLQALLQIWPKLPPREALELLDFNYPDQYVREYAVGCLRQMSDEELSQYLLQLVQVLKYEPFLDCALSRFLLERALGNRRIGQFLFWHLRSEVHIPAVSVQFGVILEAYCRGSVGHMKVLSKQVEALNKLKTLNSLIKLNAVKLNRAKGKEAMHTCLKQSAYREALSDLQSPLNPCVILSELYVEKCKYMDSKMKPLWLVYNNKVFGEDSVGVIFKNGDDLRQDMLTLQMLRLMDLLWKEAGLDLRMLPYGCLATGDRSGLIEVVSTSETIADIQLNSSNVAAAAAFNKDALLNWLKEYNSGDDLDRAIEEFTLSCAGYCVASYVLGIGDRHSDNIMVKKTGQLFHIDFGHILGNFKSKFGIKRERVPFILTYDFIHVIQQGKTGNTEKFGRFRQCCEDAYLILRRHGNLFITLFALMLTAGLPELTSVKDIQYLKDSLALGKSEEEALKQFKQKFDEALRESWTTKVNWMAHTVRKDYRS
Chain of PI3K β (p110β/p85α)(h) (P27986 whole entry partner): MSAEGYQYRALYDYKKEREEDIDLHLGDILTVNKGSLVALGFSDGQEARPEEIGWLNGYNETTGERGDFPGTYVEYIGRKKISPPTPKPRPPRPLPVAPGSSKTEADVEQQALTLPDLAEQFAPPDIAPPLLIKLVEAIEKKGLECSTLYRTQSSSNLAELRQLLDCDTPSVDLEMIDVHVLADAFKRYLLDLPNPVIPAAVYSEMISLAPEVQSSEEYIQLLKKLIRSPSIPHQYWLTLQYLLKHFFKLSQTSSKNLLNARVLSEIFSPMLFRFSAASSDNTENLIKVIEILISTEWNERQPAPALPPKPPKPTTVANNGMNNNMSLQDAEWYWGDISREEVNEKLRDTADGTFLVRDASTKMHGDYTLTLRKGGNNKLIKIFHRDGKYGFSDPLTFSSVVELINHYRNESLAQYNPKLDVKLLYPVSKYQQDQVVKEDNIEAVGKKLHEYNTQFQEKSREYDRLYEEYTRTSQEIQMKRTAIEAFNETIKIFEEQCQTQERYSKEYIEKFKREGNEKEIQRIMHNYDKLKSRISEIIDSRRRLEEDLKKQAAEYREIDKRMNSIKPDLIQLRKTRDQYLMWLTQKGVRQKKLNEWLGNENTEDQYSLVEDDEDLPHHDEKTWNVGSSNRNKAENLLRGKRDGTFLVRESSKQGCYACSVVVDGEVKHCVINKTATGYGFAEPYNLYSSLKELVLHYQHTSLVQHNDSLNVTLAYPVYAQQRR
Chain of PI3Kδ (p110δ/p85α)(h) (O00329 whole entry): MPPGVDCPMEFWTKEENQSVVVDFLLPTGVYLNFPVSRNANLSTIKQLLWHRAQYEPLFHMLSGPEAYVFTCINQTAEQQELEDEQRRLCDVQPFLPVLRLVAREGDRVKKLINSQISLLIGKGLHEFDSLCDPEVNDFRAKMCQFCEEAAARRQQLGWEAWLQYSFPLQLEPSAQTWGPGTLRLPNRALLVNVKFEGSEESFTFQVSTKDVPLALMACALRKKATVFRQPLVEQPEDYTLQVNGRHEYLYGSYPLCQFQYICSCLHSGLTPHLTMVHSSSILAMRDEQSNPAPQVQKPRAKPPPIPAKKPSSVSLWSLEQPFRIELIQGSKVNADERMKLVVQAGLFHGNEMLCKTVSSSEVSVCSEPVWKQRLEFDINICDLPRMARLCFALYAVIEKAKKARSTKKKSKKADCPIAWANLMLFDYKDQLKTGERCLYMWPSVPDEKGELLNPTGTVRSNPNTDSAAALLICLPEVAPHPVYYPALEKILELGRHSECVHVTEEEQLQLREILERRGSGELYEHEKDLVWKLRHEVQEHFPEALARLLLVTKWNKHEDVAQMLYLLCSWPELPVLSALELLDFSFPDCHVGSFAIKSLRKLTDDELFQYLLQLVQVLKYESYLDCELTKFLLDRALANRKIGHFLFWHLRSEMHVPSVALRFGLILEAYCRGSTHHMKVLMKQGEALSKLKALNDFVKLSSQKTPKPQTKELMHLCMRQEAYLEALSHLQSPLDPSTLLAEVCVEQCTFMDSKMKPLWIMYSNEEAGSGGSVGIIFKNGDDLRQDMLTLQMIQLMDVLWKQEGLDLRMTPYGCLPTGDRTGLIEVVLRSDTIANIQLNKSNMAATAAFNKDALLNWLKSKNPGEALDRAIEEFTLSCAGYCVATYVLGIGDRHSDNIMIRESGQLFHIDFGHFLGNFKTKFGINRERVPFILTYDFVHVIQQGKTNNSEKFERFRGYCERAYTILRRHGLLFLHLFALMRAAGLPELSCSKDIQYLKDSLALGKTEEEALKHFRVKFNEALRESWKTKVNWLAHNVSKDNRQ
Chain of PI3Kδ (p110δ/p85α)(h) (P27986 whole entry partner): as the sequence (P27986 whole entry partner) above
Chain of PI3Kα (p110α/p85α)(h) (P42336 whole entry): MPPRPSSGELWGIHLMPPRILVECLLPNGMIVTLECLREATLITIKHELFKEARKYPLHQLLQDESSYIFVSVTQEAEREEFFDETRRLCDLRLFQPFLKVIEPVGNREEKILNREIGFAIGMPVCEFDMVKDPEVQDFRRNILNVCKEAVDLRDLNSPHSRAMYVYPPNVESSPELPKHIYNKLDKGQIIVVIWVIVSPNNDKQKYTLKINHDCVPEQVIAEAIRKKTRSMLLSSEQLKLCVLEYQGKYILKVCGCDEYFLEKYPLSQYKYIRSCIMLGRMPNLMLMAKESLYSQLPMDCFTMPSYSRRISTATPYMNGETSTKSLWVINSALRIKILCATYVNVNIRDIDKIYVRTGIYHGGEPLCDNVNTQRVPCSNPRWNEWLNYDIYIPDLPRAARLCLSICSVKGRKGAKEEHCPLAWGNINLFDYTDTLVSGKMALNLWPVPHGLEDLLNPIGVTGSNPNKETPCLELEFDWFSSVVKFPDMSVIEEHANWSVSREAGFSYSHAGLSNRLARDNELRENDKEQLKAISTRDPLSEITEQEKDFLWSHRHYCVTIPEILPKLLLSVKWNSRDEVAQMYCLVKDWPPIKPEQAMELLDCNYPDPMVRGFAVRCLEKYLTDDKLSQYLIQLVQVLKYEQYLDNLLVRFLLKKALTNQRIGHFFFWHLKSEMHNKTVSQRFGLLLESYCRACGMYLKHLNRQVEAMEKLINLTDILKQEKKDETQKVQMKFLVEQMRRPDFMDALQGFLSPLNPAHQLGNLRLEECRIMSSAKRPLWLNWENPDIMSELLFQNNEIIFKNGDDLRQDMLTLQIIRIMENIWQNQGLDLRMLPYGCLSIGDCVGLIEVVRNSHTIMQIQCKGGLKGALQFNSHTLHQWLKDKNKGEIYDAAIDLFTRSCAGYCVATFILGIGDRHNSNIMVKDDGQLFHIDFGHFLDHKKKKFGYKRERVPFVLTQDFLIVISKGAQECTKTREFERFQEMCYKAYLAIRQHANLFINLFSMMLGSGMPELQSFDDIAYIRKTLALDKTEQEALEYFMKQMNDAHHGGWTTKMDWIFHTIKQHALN
Chain of PI3Kα (p110α/p85α)(h) (P27986 whole entry partner): as the sequence (P27986 whole entry partner) above
Chain of PI3Kγ (p120γ)(h) (P48736 whole entry): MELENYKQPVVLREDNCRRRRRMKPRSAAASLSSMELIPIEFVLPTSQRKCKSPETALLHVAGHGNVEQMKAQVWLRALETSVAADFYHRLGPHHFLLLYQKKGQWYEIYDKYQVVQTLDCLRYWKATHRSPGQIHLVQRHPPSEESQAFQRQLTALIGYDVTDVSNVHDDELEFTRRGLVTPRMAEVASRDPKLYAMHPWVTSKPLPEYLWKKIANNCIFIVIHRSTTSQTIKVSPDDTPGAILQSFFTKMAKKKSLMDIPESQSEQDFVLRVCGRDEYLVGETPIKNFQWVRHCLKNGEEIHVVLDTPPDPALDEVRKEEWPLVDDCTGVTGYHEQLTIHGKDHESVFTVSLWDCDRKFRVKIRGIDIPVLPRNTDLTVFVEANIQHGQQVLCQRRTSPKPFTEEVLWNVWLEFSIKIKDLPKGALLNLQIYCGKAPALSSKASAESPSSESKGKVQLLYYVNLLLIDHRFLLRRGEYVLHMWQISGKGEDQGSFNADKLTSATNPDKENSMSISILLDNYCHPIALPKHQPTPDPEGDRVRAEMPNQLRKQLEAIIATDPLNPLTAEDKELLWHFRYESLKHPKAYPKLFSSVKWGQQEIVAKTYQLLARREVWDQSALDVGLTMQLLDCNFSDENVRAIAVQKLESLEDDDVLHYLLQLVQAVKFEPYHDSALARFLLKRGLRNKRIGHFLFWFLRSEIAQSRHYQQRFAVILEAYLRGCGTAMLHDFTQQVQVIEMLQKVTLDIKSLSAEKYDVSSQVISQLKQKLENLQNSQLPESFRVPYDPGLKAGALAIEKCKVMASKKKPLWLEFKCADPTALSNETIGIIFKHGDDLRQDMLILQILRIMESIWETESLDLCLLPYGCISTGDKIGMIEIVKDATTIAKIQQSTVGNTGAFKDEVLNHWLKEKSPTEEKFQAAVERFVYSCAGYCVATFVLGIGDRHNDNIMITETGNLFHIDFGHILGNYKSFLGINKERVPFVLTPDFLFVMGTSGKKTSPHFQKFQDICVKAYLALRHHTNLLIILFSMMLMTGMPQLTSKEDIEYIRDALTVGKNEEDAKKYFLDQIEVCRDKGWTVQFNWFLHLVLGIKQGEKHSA

Row | SMILES | IC50 (PI3Kγ (p120γ)(h)) [nM] | IC50 (PI3Kα (p110α/p85α)(h)) [nM] | IC50 (PI3K β (p110β/p85α)(h)) [nM] | IC50 (PI3Kδ (p110δ/p85α)(h)) [nM]
1 | N#Cc1ccccc1C#Cc1cncc2cc(/C=C3\SC(=S)NC3=O)oc12 [Example 513, (Z)-2-([2-{(4-Oxo-2-thioxothiazolidin-5-ylidene)methyl}furo[3,2-c]pyridin-7-yl]ethynyl)benzonitrile] | 11 | 4 | 715 | 74
2 | COc1c(C)cc(-c2cncc3cc(/C=C4\SC(=O)NC4=O)oc23)cc1C [Example 73, (Z)-5-[{7-(4-Methoxy-3,5-dimethylphenyl)furo[3,2-c]pyridin-2-yl}methylene]thiazolidine-2,4-dione] | 10 | 10 | > 10000 | > 10000
3 | CCOc1ccc(-c2cncc3cc(/C=C4\SC(=O)NC4=O)oc23)cc1C(F)(F)F [Example 94, (Z)-5-([7-{4-Ethoxy-3-(trifluoromethyl)phenyl}furo[3,2-c]pyridin-2-yl]methylene)thiazolidine-2,4-dione] | 8 | 6 | > 10000 | > 10000
4 | CSc1ccc(-c2cncc3cc(/C=C4\SC(=O)NC4=O)oc23)cn1 [Example 41, (Z)-5-([7-{6-(Methylthio)pyridin-3-yl}furo[3,2-c]pyridin-2-yl]methylene)thiazolidine-2,4-dione] | 13 | 12 | 100 | 322
5 | CS(=O)(=O)c1ccc(-c2cncc3cc(/C=C4\SC(=O)NC4=O)oc23)cc1 [Example 40, (Z)-5-([7-{4-(Methylsulfonyl)phenyl}furo[3,2-c]pyridin-2-yl]methylene)thiazolidine-2,4-dione] | 28 | 8 | 177 | 590
6 | O=C1NC(=S)S/C1=C\c1cc2cncc(-c3ccc(F)nc3)c2o1 [Example 153, (Z)-5-[{7-(6-Fluoropyridin-3-yl)furo[3,2-c]pyridin-2-yl}methylene]-2-thioxothiazolidin-4-one] | 16 | 10 | 115 | 246
7 | COc1c(C)cc(-c2cncc3cc(/C=C4\SC(=S)NC4=O)oc23)cc1C [Example 196, (Z)-5-[7-(4-Methoxy-3,5-dimethylphenyl)furo[3,2-c]pyridin-2-ylmethylene]-2-thioxothiazolidin-4-one] | 7 | 10 | > 10000 | > 10000
8 | COc1ccccc1C#Cc1cncc2cc(/C=C3\SC(=S)NC3=O)oc12 [Example 486, (Z)-5-([7-{(2-Methoxyphenyl)ethynyl}furo[3,2-c]pyridin-2-yl]methylene)-2-thioxothiazolidin-4-one] | 14 | 4 | > 10000 | > 10000
9 | N#Cc1ccc(C#Cc2cncc3cc(/C=C4\SC(=S)NC4=O)oc23)cc1 [Example 548, (Z)-4-([2-{(4-Oxo-2-thioxothiazolidin-5-ylidene)methyl}furo[3,2-c]pyridin-7-yl]ethynyl)benzonitrile] | 25 | 8 | 138 | 250
10 | O=C1NC(=O)/C(=C/c2cc3cncc(-c4ccc(S(=O)(=O)NCCO)cc4)c3o2)S1 [Example 263, (Z)-4-[2-{(2,4-Dioxothiazolidin-5-ylidene)methyl}furo[3,2-c]pyridin-7-yl]-N-(2-hydroxyethyl)benzenesulfonamide] | 28 | 16 | 1400 | 2500
11 | O=C1NC(=S)S/C1=C\c1cc2cncc(C#CC3CC3)c2o1 [Example 475, (Z)-5-[{7-(Cyclopropylethynyl)furo[3,2-c]pyridin-2-yl}methylene]-2-thioxothiazolidin-4-one] | 10 | 68 | > 10000 | > 10000
12 | O=C1NC(=O)/C(=C/c2cc3cncc(C#Cc4ccc(Cl)cc4)c3o2)S1 [Example 541, (Z)-5-([7-{(4-Chlorophenyl)ethynyl}furo[3,2-c]pyridin-2-yl]methylene)thiazolidine-2,4-dione] | 27 | 5 | 104 | 136
13 | O=C1NC(=O)/C(=C/c2cc3cncc(C#Cc4ccccc4C(F)(F)F)c3o2)S1 [Example 526] | 23 | 6 | 1210 | 33
14 | O=C1NC(=O)/C(=C/c2cc3cncc(-c4ccc5c(c4)OCO5)c3o2)S1 [Example 36, (Z)-5-[{7-(Benzo[d][1,3]dioxol-5-yl)furo[3,2-c]pyridin-2-yl}methylene]thiazolidine-2,4-dione] | 154 | 86 | 14 | > 10000
15 | O=C1NC(=O)/C(=C/c2cc3cncc(C#Cc4ccccc4)c3o2)S1 [Example 125, (Z)-5-[{7-(Phenylethynyl)furo[3,2-c]pyridin-2-yl}methylene]thiazolidine-2,4-dione] | 12 | 58 | > 10000 | > 10000
16 | O=C1NC(=O)/C(=C/c2cc3cncc(-c4cccc(OCC(F)(F)F)c4)c3o2)S1 [Example 110, (Z)-5-([7-{3-(2,2,2-Trifluoroethoxyl)phenyl}furo[3,2-c]pyridin-2-yl]methylene)thiazolidine-2,4-dione] | 96 | – | 293 | 4230
